This note sets out measurements from patent EP0925786A1, “REMEDIES FOR ISCHEMIC DISEASES” (MITSUBISHI CHEMICAL CORPORATION, priority 1996, dated 1998).

Molecules are shown by their SMILES.

Data set [1] relates to male Wistar rats. Briefly: Action to improve passive avoidance response after a short period of fore-brain ischemia. The note with it: dose of 1 mg/kg, po, 30 minutes before 5 minutes of ischemia loading; retrieval test 48 hours after reperfusion. Type of data set: in vivo, rat.
Source text: Also, animals treated only with cauterization of vertebral arteries were used as a pseudo-operation group. During ischemia and after reperfusion, body temperature of the animals was maintained by putting them on a heat insulating mat until righting reflex was recovered.
An apparatus composed of a light room (50 x 50 x 50 cm) equipped with a 100 W bulb and a dark room (20 x 14 x 20 cm) was used in the passive avoidance response test. Each of the rats which have been subjected to cauterization of both vertebral arteries 48 hours prior to the test was put into the light room and its latency to enter the dark room was measured to be used as the response latency at the time of acquisition trial. […] When each rat entered the dark room, the guillotine door was closed and the rat was immediately exposed to an electric shock (2.9 mA, 5 seconds) from the floor grid, thus completing the acquisition trial. Subsequently, 5 minutes of ischemia loading (occlusion of both common carotid arteries) was carried out under ether anesthesia, and retrieval test was carried out 48 hours after reperfusion. […] Presence or absence of the action to improve passive avoidance response was judged by comparing response latencies of the acquisition trial and retrieval test. Each drug to be tested was orally administered 30 minutes before the ischemia loading.
Data set [2] is described as follows: in vivo. The note with it: both sexes, SD, rat, po.
Data set [3] can be described thus: Formation of active metabolite in blood (dog sera, HPLC). Conditions: same procedure. Type of data set: in vitro ADME.
Data set [4] can be described thus: Formation of active metabolite in blood (rat serum incubation, HPLC). The note with it: final concentration 100 µM, 5 minutes of incubation at 37°C. Type of data set: in vitro ADME. As to the method:
(2S,3S)-2-Acetoxy-3-((S)-4-methyl-2-phenylsulfonylaminovalerylamino)tetrahydrofuran obtained in Inventive Example 2 was dissolved in acetonitrile and added to rat serum to a final concentration of 100 µM. After 5 minutes of incubation at 37°C, this was mixed with acetonitrile and centrifuged and then the thus obtained supernatant fluid was checked by HPLC. It was found as the result that a 97% portion of the thus added (2S,3S)-2-acetoxy-3-((S)-4-methyl-2-phenylsulfonylaminovalerylamino)-tetrahydrofuran was hydrolyzed and converted into its active metabolite (3S)-3-((S)-4-methyl-2-phenylsulfonylaminovalerylamino)-2-tetrahydrofuranol (compound of Inventive Example 1).
HPLC was carried out under the following conditions. • Column: Nucleosil 100 5C18 4.6 x 250 mm (manufactured by Nargel) • Column temperature: 50°C • Mobile phase: CH3CN:H2O:PIC A Low UV (manufactured by Waters) 22:78:1 • Flow rate: 1 ml/min • Detection wave length: UV 222 nm

Data set [5] in a line: Formation of active metabolite in blood (human sera, HPLC). Type of data set: in vitro ADME. Conditions: same procedure.
Data set [6] has as its target T1, m-Calpain (Rattus norvegicus, UniProt Q07009).
T1 construct: m-Calpain was purified from rat brain; from tissue; host or cells: rat brain
T1 sequence (Q07009 20-700 limits assumed): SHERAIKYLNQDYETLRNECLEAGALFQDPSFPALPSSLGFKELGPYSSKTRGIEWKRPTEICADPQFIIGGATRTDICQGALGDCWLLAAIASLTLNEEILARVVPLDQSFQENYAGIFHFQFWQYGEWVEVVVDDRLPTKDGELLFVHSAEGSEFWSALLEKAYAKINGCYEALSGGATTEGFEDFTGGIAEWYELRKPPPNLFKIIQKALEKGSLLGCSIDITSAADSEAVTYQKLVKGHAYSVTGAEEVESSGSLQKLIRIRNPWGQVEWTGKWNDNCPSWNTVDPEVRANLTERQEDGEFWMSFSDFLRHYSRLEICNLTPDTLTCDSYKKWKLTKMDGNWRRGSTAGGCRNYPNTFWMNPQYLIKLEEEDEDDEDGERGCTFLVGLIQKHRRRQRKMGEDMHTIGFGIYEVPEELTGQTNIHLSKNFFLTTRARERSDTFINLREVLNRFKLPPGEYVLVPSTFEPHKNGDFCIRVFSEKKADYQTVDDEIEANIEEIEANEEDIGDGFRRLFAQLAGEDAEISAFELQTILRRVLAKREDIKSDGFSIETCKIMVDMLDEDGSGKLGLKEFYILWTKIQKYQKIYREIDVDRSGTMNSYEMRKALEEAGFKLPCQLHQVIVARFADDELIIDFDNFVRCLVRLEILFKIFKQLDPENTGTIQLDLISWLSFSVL
T1 sequence (Q64537 1-270 partner): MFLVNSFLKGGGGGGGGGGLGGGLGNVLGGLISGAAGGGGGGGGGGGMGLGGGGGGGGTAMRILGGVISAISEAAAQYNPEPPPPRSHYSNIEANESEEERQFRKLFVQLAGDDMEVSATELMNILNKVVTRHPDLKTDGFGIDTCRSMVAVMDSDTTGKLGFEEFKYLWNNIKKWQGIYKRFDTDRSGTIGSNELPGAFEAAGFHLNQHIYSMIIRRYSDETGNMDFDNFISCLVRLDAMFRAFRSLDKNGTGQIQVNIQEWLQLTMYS
The experiment in a line: Measurement of inhibitory activity against calpain. Conditions: m-Calpain purified from rat brain. The class given is biochemical. As to the method: m-Calpain was purified from rat brain in accordance with the method described in Journal of Biological Chemistry, vol. 259, p. 3210, 1984, and its inhibitory activity was measured in accordance with the method described in Journal of Biological Chemistry, vol. 259, p. 12489, 1984.

In data set [7] the test system is female SD rats. Briefly: Myocardial infarct size-limiting effect in acute myocardial infarction model of rat. Type of data set: in vivo. On the procedure: An experiment was performed on female SD rats (14 weeks of age). The rats were lightly anesthetized with ether and a left thoracotomy wag performed. A permanent occlusion was placed around the proximal left coronary artery to produce acute myocardial infarction. Infarct size evaluated in each excised heart at 24 hours after the ligation.
The animals were divided into 2 groups at random, and 10 mg/kg of the compound of Inventive Example 29 (Compound No.. 426 in Table 2) suspended in water with Tween 80 was orally administered in a volume of 1 ml/kg to each animal of one of these groups (drug group) 1 hour before the coronary artery ligation, while the same volume of tap water was administered to the other group (control group). A rat with successful thoracotomy and which survived until 24 hours after the coronary ligation was used as the final evaluation subject. This study was continued until the final number of animals in each group reached 8.
Evaluation of the myocardial infarct size was carried out in the following manner. Each of the excised heart was cut into the slices at 2 mm thick from apex to base, and the sections were stained by incubating them in TTC solution (1%) at 37°C for 20 minutes to confirm necrotic region and non-necrotic region. Thereafter, sectional images of the sections were photographed to carry out image analysis on a computer. The infarction size was expressed as a % value obtained by dividing total area of necrotic area of all sliced sections by total left ventricle area (including septum part and excluding left ventricle cavity).

What is called LD50 is the dose at which mortality reaches 50%. Lower therefore signals greater toxicity. With `CC(=O)O[C@@H]1OCC[C@@H]1NC(=O)[C@H](CC(C)C)NS(=O)(=O)c1ccccc1` [Inventive Example 2, (2S,3S)-2-acetoxy-3-((S)-4-methyl-2-phenylsulfonylaminovalerylamino)tetrahydrofuran], in data set [1], the “action to improve passive avoidance response” value is listed as “showed the improving action”. Moreover, the LD50 at 7 days in data set [2] is > 2000 mg/kg. The “formation of active metabolite” value in data set [3] and in data set [5] was “the same active metabolite is formed” in each case. The “portion hydrolyzed and converted into its active metabolite” value in data set [4] came to 97%. As a reminder, the IC50 is the concentration that inhibits the measured activity by half. In turn, `CCCCCCCCCCCCCCOC(=O)N[C@@H](CC(C)C)C(=O)N[C@H]1CCOC1O` (stereo partly drawn) [Inventive Example 3, (3S)-3-((S)-4-methyl-2-tetradecyloxycarbonylaminovalerylamino)-2-tetrahydrofuranol] showed an IC50 in data set [6] of 110 nM. `CCCCCCCCCCCCCCC(=O)N[C@@H](CC(C)C)C(=O)N[C@H]1CCOC1O` (stereo partly drawn) [Inventive Example 8, (3S)-3-((S)-4-methyl-2-pentadecanoylaminovalerylamino)-2-tetrahydrofuranol] showed an IC50 in data set [6] of 110 nM.

The molecule `CCCCCCCCCCCCCCCC(=O)N[C@@H](CC(C)C)C(=O)N[C@H]1CCOC1O` (stereo partly drawn) [Inventive Example 9, (3S)-3-((S)-2-hexadecanoylamino-4-methylvalerylamino)-2-tetrahydrofuranol] had an IC50 in data set [6] of 160 nM. Still for that read-out and setting: under `CC(C)C[C@H](NC(=O)c1ccccc1F)C(=O)N[C@H]1CCOC1O` (stereo partly drawn) [Inventive Example 10, (3S)-3-{(S)-2-(2-fluorobenzoylamino)-4-methylvalerylamino}-2-tetrahydrofuranol] stands 170 nM; under `Cc1ccc(C(=O)N[C@@H](CC(C)C)C(=O)N[C@H]2CCOC2O)cc1` (stereo partly drawn) [Inventive Example 12, (3S)-3-{(S)-4-methyl-2-(4-methylbenzoylamino)valerylamino}-2-tetrahydrofuranol], 330 nM; under `CCCCCCCCCCCCCCCCS(=O)(=O)N[C@@H](CC(C)C)C(=O)N[C@H]1CCOC1O` (stereo partly drawn) [Inventive Example 13, (3S)-3-((S)-2-hexadecylsufonylamino-4-methylvalerylamino)-2-tetrahydrofuranol], 420 nM.

`COc1ccc(S(=O)(=O)N[C@@H](CC(C)C)C(=O)N[C@H]2CCOC2O)cc1` (stereo partly drawn) [Inventive Example 17, (3S)-3-{(S)-2-(4-methoxyphenylsulfonylamino)-4-methylvalerylamino}-2-tetrahydrofuranol] had a half-maximal inhibitory concentration (IC50) in data set [6] of 670 nM. `CC(C)C[C@H](NS(=O)(=O)c1ccc2ccccc2c1)C(=O)N[C@H]1CCOC1O` (stereo partly drawn) [Inventive Example 18, (3S)-3-{(S)-4-methyl-2-(2-naphthylsulfonylamino)valerylamino}-2-tetrahydrofuranol] had an IC50 in data set [6] of 360 nM. `CC(C)C[C@H](NS(=O)(=O)c1ccccc1)C(=O)N[C@H]1C(C)COC1O` (stereo partly drawn) [Inventive Example 19, (3S)-4-methyl-3-((S)-4-methyl-2-phenylsulfonylaminovalerylamino)-2-tetrahydrofuranol] registered an IC50 in data set [6] of 2500 nM. `CC(=O)O[C@@H]1OCC[C@@H]1NC(=O)[C@H](CC(C)C)NC(=O)c1ccccc1F` [Inventive Example 24, (2S,3S)-2-acetoxy-3-{(S)-2-(2-fluorobenzoylamino)-4-methylvalerylamino}tetrahydrofuran]: in data set [1], the “action to improve passive avoidance response” value is on record as “showed the improving action”.

Consider `CC(=O)O[C@@H]1OCC[C@@H]1NC(=O)[C@H](CC(C)C)NS(=O)(=O)c1c(C)cc(C)cc1C` [Inventive Example 29, (2S,3S)-2-acetoxy-3-{(S)-4-methyl-2-(2,4,6-trimethylphenylsulfonylamino)valerylamino}tetrahydrofuran], for which the LD50 at 7 days in data set [2] is > 2000 mg/kg. In data set [7] (10 mg/kg orally 1 hour before coronary artery ligation, 24 hours after ligation, necrotic area / total left ventricle area, control 37.3 ± 3.5%), this molecule came in with an infarct size of 25.0 ± 1.7%. For the same molecule, the “infarct size reducing ratio” value in data set [7] (10 mg/kg orally, based on the control group) worked out at 33.0%. In addition, in data set [7] (drug group 10 mg/kg orally, control group 2), the “animals died during the thoracotomy” value amounted to 3. Further, the “animals died within 24 hours after the operation” value in data set [7] (drug group 10 mg/kg orally, control group 9) is recorded as 10.
